Measurements from patent US20200407393A1, “Medical Use” (priority 2018, published 2020).
Read-outs that look alike come from different tables or passages of the source.

What was measured:
[1] = tested on: WT pseudotyped virus (NL4-3 provirus with HIV gp160 envelope) in U373 cells; experiment: PSV assay (pseudotyped virus assay), WT; conditions: read-out: WT IC50
From the text: A pseudotyped virus assay (PSV) was used to assess the potency of the compounds. Replication defective virus was produced by co-transfection of a plasmid containing an NL4-3 provirus [containing a mutation in the envelope open reading frame (ORF) and a luciferase reporter gene replacing the nef ORF] and a CMV-promoter expression plasmid containing an ORF for various HIV gp160 envelope clones. The harvested virus was stored at −80 C in small aliquots and the titer of the virus measured to produce a robust signal for antiviral assays.
The PSV assay was performed by using U373 cells stably transformed to express human CD4, the primary receptor for HIV entry and either human CXCR4 or human CCR5 which are the co-receptors required for HIV entry as target cells for infection. […] This dose-range was applied to U373 cells and the pre-made pseudotyped virus added. The amount of luciferase signal produced after 3 days of culture was used to reflect the level of pseudotyped virus infection. […] IC50 values were determined from a 10 point dose response curve using 3-4-fold serial dilution for each compound, which spans a concentration range>1000 fold.
These values are plotted against the molar compound concentrations using the standard four parameter logistic equation:
y=((Vmax*x^n)/(K^n+x^n))+Y2 • where: • Y2=minimum y n=slope factor • Vmax=maximum y x=compound concentration [M] • K=EC50

[2] = tested on: M184V pseudotyped virus in U373 cells; type: cell-based, HIV;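 also: reported value is IC50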
[3] = tested on: WT pseudotyped virus (PSV) infection of U373 cells; experiment: microbe, parasite or virus in culture; type: cell-based; conditions: for IC50: Human immunodeficiency virus 1, U373 MG, cells treated 6 h, washed; for Fold Change vs EFdA: fold change of the persistence index relative to EFdA; for Persistence Index: ratio of the IC50 determined at 48 and 0 h
[4] = Human immunodeficiency virus 1, NL43, U373 MG
[5] = Table 5, mean of a greater number of data replicates
[6] = Human immunodeficiency virus 1, NL43, U373 MG, 72 h
[7] = Table 4, luciferase signal after 3 days of culture
[8] = infected immediately (0 h), read-out: WT IC50 at t = 0 h
[9] = infected 48 h after removal of compound, read-out: WT IC50 at t = 48 h

| Compound | IC50 [1, 4] [nM] | IC50 [2, 5] [nM] | also measured |
| --- | --- | --- | --- |
| C#C[C@]1(COC(=O)C(C)(C)CCC)O[C@@H](n2cnc3c(N)nc(F)nc32)C[C@@H]1O [Example 20, ((2R,3S,5R)-5-(6-amino-2-fluoro-9H-purin-9-yl)-2-ethynyl-3-hydroxytetrahydrofuran-2-yl)methyl 2,2-dimethylpentanoate] | 25 | 91 | – |
| C#C[C@]1(COC(=O)CC(F)(F)F)O[C@@H](n2cnc3c(N)nc(F)nc32)C[C@@H]1O [Example 24, ((2R,3S,5R)-5-(6-amino-2-fluoro-9H-purin-9-yl)-2-ethynyl-3-hydroxytetrahydrofuran-2-yl)methyl 3,3,3-trifluoropropanoate] | 8 | 37 | – |
| C#C[C@]1(COC(=O)CCCCCCCCCC)O[C@@H](n2cnc3c(N)nc(F)nc32)C[C@@H]1O [Example 12, ((2R,3S,5R)-5-(6-amino-2-fluoro-9H-purin-9-yl)-2-ethynyl-3-hydroxytetrahydrofuran-2-yl)methyl undecanoate] | 2 | 9 | – |
| ((2R,3S,5R)-5-(6-amino-2-fluoro-9H-purin-9-yl)-2-ethynyl-3-hydroxytetrahydrofuran-2-yl)methyl tetracosanoate [Example 16] | – | 10700 | IC50 [1, 5]: 2280 nM |
| C#C[C@]1(COC(=O)CCCCCCCCC)O[C@@H](n2cnc3c(N)nc(F)nc32)C[C@@H]1O [Example 3, ((2R,3S,5R)-5-(6-amino-2-fluoro-9H-purin-9-yl)-2-ethynyl-3-hydroxytetrahydrofuran-2-yl)methyl decanoate] | 3 | 14 | IC50 [1, 6]: 2 nM; IC50 [2, 7]: 15 nM |
| C#C[C@]1(COC(=O)CCCCCC)O[C@@H](n2cnc3c(N)nc(F)nc32)C[C@@H]1O [Example 2, ((2R,3S,5R)-5-(6-amino-2-fluoro-9H-purin-9-yl)-2-ethynyl-3-hydroxytetrahydrofuran-2-yl)methyl heptanoate] | 3 | 15 | IC50 [1, 6]: 3 nM; IC50 [2, 7]: 12 nM |
| C#C[C@]1(COC(=O)CCCCCCCCCCCCCC)O[C@@H](n2cnc3c(N)nc(F)nc32)C[C@@H]1O [Example 14, ((2R,3S,5R)-5-(6-amino-2-fluoro-9H-purin-9-yl)-2-ethynyl-3-hydroxytetrahydrofuran-2-yl)methyl pentadecanoate] | 2 | 11 | – |
| C#C[C@]1(COC(=O)CCCCCCCC#CCCCCCCCC)O[C@@H](n2cnc3c(N)nc(F)nc32)C[C@@H]1O [Example 18, ((2R,3S,5R)-5-(6-amino-2-fluoro-9H-purin-9-yl)-2-ethynyl-3-hydroxytetrahydrofuran-2-yl)methyl octadec-9-ynoate] | 2 | 14 | – |
| C#C[C@]1(CO)O[C@@H](n2cnc3c(N)nc(F)nc32)C[C@@H]1O [EFdA, (2R,3S,5R)-5-(6-amino-2-fluoro-9H-purin-9-yl)-2-ethynyl-2-(hydroxymethyl)tetrahydrofuran-3-ol, reference compound] | – | – | IC50 [3, 8]: 7.4 nM; Fold Change vs EFdA [3]: 1.00; Persistence Index [3]: 42.87 |
| C#C[C@]1(COC(=O)CCCCCCCCCCCCCCCC)O[C@@H](n2cnc3c(N)nc(F)nc32)C[C@@H]1O [Example 15, ((2R,3S,5R)-5-(6-amino-2-fluoro-9H-purin-9-yl)-2-ethynyl-3-hydroxytetrahydrofuran-2-yl)methyl heptadecanoate] | 4 | 26 | – |
| C#C[C@]1(COC(=O)CCCCCCC/C=C\C/C=C\C/C=C\CC)O[C@@H](n2cnc3c(N)nc(F)nc32)C[C@@H]1O [Example 6, (9Z,12Z,15Z)-((2R,3S,5R)-5-(6-amino-2-fluoro-9H-purin-9-yl)-2-ethynyl-3-hydroxytetrahydrofuran-2-yl)methyl octadeca-9,12,15-trienoate] | 4 | 21 | IC50 [1, 6]: 4 nM; IC50 [3, 9]: 180 nM; IC50 [3, 8]: 3.7 nM; Fold Change vs EFdA [3]: 0.75; Persistence Index [3]: 56.90; IC50 [2, 7]: 24 nM |
| C#C[C@]1(COC(=O)CCCCCCCC)O[C@@H](n2cnc3c(N)nc(F)nc32)C[C@@H]1O [Example 11, ((2R,3S,5R)-5-(6-amino-2-fluoro-9H-purin-9-yl)-2-ethynyl-3-hydroxytetrahydrofuran-2-yl)methyl nonanoate] | 3 | 13 | – |
| C#C[C@]1(COC(=O)C(CCCCCC)CCCCCCCC)O[C@@H](n2cnc3c(N)nc(F)nc32)C[C@@H]1O (stereo partly drawn) [Example 22, ((2R,3S,5R)-5-(6-amino-2-fluoro-9H-purin-9-yl)-2-ethynyl-3-hydroxytetrahydrofuran-2-yl)methyl 2-hexyldecanoate] | 36 | 176 | – |
| C#C[C@]1(COC(=O)C(CCC)CCC)O[C@@H](n2cnc3c(N)nc(F)nc32)C[C@@H]1O [Example 4, ((2R,3S,5R)-5-(6-amino-2-fluoro-9H-purin-9-yl)-2-ethynyl-3-hydroxytetrahydrofuran-2-yl)methyl 2-propyl pentanoate] | 20 | 111 | IC50 [1, 6]: 14 nM; IC50 [3, 9]: 691 nM; IC50 [3, 8]: 21.1 nM; Fold Change vs EFdA [3]: 1.31; Persistence Index [3]: 32.78; IC50 [2, 7]: 119 nM |
| C#C[C@]1(COC(=O)CC)O[C@@H](n2cnc3c(N)nc(F)nc32)C[C@@H]1O [Example 8, ((2R,3S,5R)-5-(6-amino-2-fluoro-9H-purin-9-yl)-2-ethynyl-3-hydroxytetrahydrofuran-2-yl)methyl propionate] | 8 | 39 | – |
| C#C[C@]1(COC(=O)CCCC)O[C@@H](n2cnc3c(N)nc(F)nc32)C[C@@H]1O [Example 10, ((2R,3S,5R)-5-(6-amino-2-fluoro-9H-purin-9-yl)-2-ethynyl-3-hydroxytetrahydrofuran-2-yl)methyl pentanoate] | 3 | 19 | – |
| C#C[C@]1(COC(=O)CCCCCCCC#CC)O[C@@H](n2cnc3c(N)nc(F)nc32)C[C@@H]1O [Example 17, ((2R,3S,5R)-5-(6-amino-2-fluoro-9H-purin-9-yl)-2-ethynyl-3-hydroxytetrahydrofuran-2-yl)methyl undec-9-ynoate] | 3 | 13 | – |
| C#C[C@]1(COC(=O)C(CCCC)CCCCCC)O[C@@H](n2cnc3c(N)nc(F)nc32)C[C@@H]1O (stereo partly drawn) [Example 21, ((2R,3S,5R)-5-(6-amino-2-fluoro-9H-purin-9-yl)-2-ethynyl-3-hydroxytetrahydrofuran-2-yl)methyl 2-butyloctanoate] | 25 | 113 | – |
| C#C[C@]1(COC(=O)C(C)(C)C)O[C@@H](n2cnc3c(N)nc(F)nc32)C[C@@H]1O [Example 19, ((2R,3S,5R)-5-(6-amino-2-fluoro-9H-purin-9-yl)-2-ethynyl-3-hydroxytetrahydrofuran-2-yl)methyl pivalate] | 30 | 150 | – |
| C#C[C@]1(COC(=O)CCC)O[C@@H](n2cnc3c(N)nc(F)nc32)C[C@@H]1O [Example 9, ((2R,3S,5R)-5-(6-amino-2-fluoro-9H-purin-9-yl)-2-ethynyl-3-hydroxytetrahydrofuran-2-yl)methyl butyrate] | 5 | 26 | – |
| C#C[C@]1(COC(=O)CCCCCCCCCCCC)O[C@@H](n2cnc3c(N)nc(F)nc32)C[C@@H]1O [Example 13, ((2R,3S,5R)-5-(6-amino-2-fluoro-9H-purin-9-yl)-2-ethynyl-3-hydroxytetrahydrofuran-2-yl)methyl tridecanoate] | 2 | 12 | – |
| C#C[C@]1(COC(=O)CCCCCCCCCCCCCCCCCCC)O[C@@H](n2cnc3c(N)nc(F)nc32)C[C@@H]1O [Example 5, ((2R,3S,5R)-5-(6-amino-2-fluoro-9H-purin-9-yl)-2-ethynyl-3-hydroxytetrahydrofuran-2-yl)methyl icosanoate] | 67 | 333 | IC50 [1, 6]: 70 nM; IC50 [3, 9]: 102 nM; IC50 [3, 8]: 51.7 nM; Fold Change vs EFdA [3]: 23.90; Persistence Index [3]: 1.97; IC50 [2, 7]: 322 nM |
| C#C[C@]1(COC(=O)C(C)(C)C(F)(F)F)O[C@@H](n2cnc3c(N)nc(F)nc32)C[C@@H]1O [Example 25, ((2R,3S,5R)-5-(6-amino-2-fluoro-9H-purin-9-yl)-2-ethynyl-3-hydroxytetrahydrofuran-2-yl)methyl 3,3,3-trifluoro-2,2-dimethylpropanoate] | 21 | 90 | – |
| C#C[C@]1(COC(=O)CCCCCCCCCCCCC)O[C@@H](n2cnc3c(N)nc(F)nc32)C[C@@H]1O [Example 1, ((2R,3S,5R)-5-(6-amino-2-fluoro-9H-purin-9-yl)-2-ethynyl-3-hydroxytetrahydrofuran-2-yl)methyl tetradecanoate] | 1 | 10 | IC50 [1, 6]: 2 nM; IC50 [3, 9]: 89.1 nM; IC50 [3, 8]: 2.5 nM; Fold Change vs EFdA [3]: 1.33; Persistence Index [3]: 35.22; IC50 [2, 7]: 12 nM |
| C#C[C@]1(COC(C)=O)O[C@@H](n2cnc3c(N)nc(F)nc32)C[C@@H]1O [Example 7, ((2R,3S,5R)-5-(6-amino-2-fluoro-9H-purin-9-yl)-2-ethynyl-3-hydroxytetrahydrofuran-2-yl)methyl acetate] | 14 | 55 | – |
| C#C[C@]1(COC(=O)C(C)CCCCC)O[C@@H](n2cnc3c(N)nc(F)nc32)C[C@@H]1O (stereo partly drawn) [Example 23, ((2R,3S,5R)-5-(6-amino-2-fluoro-9H-purin-9-yl)-2-ethynyl-3-hydroxytetrahydrofuran-2-yl)methyl 2-methylheptanoate] | 1 | 7 | – |
